Experimental data published in ChEMBL document CHEMBL3714717, “Family of PFKFB3 inhibitors with anti-neoplastic activities” (2013).
The source made the active and inactive calls. The rule behind the calls is not given here.

What was measured:
A549 = assay: Growth inhibition of human A549 cells incubated for 48 hrs by trypan blue dye exclusion assay; assay type: functional, cell-based
K562 = assay: Growth inhibition of human K562 cells incubated for 48 hrs by trypan blue dye exclusion assay; assay type: functional, cell-based
Homo sapiens = species: Homo sapiens; assay: Growth inhibition of human CRL11174 cells incubated for 48 hrs by trypan blue dye exclusion assay; assay type: functional
MDA-MB-231 [1] = assay: Growth inhibition of human MDA-MB-231 cells incubated for 48 hrs by trypan blue dye exclusion assay; assay type: functional, cell-based
HL-60 [2] = assay: Growth inhibition of human HL60 cells incubated for 48 hrs by trypan blue dye exclusion assay; assay type: functional, cell-based
U-87MG ATCC = assay: Antitumor activity against human U87MG cells implanted in C57Bc16 mouse assessed as inhibition of tumor size at 20 mg/kg, ip measured during 7 to 25 days after tumor inoculation; assay type: functional, organism-based
CT26 = assay: Antitumor activity against mouse CT26 cells implanted in C57Bc16 mouse assessed as inhibition of tumor size at 20 or 23 mg/kg, ip measured during 7 to 22 days after tumor inoculation; assay type: functional, organism-based
[3] = molecular target: T1, 6-phosphofructo-2-kinase/fructose-2,6-bisphosphatase 3 (Homo sapiens, UniProt Q16875); conditions: 150 uM
Description: Inhibition of recombinant PFKFB3 (unknown origin) assessed as reduction in enzyme kinetic rate at 150 uM

Jurkat [4] = assay: Inhibition of cell proliferation of human Jurkat cells incubated for 72 hrs by Alamar blue assay; assay type: functional, cell-based
Jurkat [5] = assay: Reduction in 2-deoxy-glucose uptake in human Jurkat cells expressing inducible FLAG-tagged PFKFB at 10 uM measured within 4 hrs using [14C]-2-deoxy-glucose by scintillation counting method; assay type: functional, cell-based
Jurkat [6] = assay: Suppression of glycolytic flux into lactate in human Jurkat cells expressing inducible FLAG-tagged PFKFB at 10 uM after 36 hrs by NMR spectroscopy; assay type: functional, cell-based
[7] = molecular target: T1, 6-phosphofructo-2-kinase/fructose-2,6-bisphosphatase 3; assay: Mixed type inhibition of human PFKFB3 expressed in Escherichia coli BL21 (DE3) assessed as reduction in NADH consumption using fructose-6-phosphate incubated for 15 mins by spectrophotometry based pyruvate kinase and LDH enzyme coupled kinetic assay
Mus musculus [8] = assay: Reduction in [18F]-2-DG uptake in tumor of C57B1/6 mouse transplanted with mouse LLC cells at 0.07 mg/g, ip after 30 mins post dose by micro-PET method; assay type: functional, organism-based
Jurkat [9] = assay: […] cell cycle arrest in human Jurkat cells expressing inducible FLAG-tagged PFKFB assessed as accumulation at G2/M phase by propidium iodide staining based flow cytometry; assay type: functional
Jurkat [10] = assay: Inhibition of cell proliferation of human Jurkat cells expressing inducible FLAG-tagged PFKFB at 10 uM incubated for 36 hrs by trypan blue dye exclusion assay; assay type: functional, cell-based
[11] = Growth inhibition of human NHBE cells at 33 uM incubated for 48 to 72 hrs by trypan blue dye exclusion assay; assay type: cell-based
Jurkat [12] = assay: Potency index, ratio of IC50 for growth inhibition of PFKFB3+/+ht/LT/Ras human Jurkat cells to IC50 for growth inhibition of PFKFB3+/-ht/LT/Ras human Jurkat cells; assay type: functional
Jurkat [13] = assay: Reduction in ATP level in human Jurkat cells expressing inducible FLAG-tagged PFKFB at 10 uM after 24 hrs; assay type: functional, cell-based
[14] = Potency index, ratio of IC50 for 2-DG to IC50 for test compound for growth inhibition of human NHBE cells immortalized with human telomerase and large-T antigen and transformed with mutated Ras protein at 1 uM incubated for 48 to 72 hrs by trypan blue dye exclusion assay; assay type: functional
Jurkat [15] = assay: Reduction in NAD+ level in human Jurkat cells expressing inducible FLAG-tagged PFKFB at 10 uM after 24 hrs; assay type: functional, cell-based
MDA-MB-231 [16] = assay: Antitumor activity against human MDA-MB-231 cells xenografted in Balb/c mouse assessed as tumor growth inhibition at 0.07 mg/g, ip dosed as cyclical regimen of 3 daily injections followed by 3 days of without treatment; assay type: functional
Jurkat [17] = assay: Reduction in NADH level in human Jurkat cells expressing inducible FLAG-tagged PFKFB at 10 uM after 16 hrs; assay type: functional, cell-based
Mus musculus [18] = assay: Reduction in [18F]-2-DG uptake in cardiac tissue of C57B1/6 mouse transplanted with mouse LLC cells at 0.07 mg/g, ip after 30 mins post dose by micro-PET method; assay type: functional, organism-based
Jurkat [19] = assay: Reduction in Fru-2,6-BP production in human Jurkat cells expressing inducible FLAG-tagged PFKFB at 10 uM measured within 4 hrs; assay type: functional, cell-based
Mus musculus [20] = assay: Reduction in F2,6BP production excised tumor of C57B1/6 mouse transplanted with mouse LLC cells at 0.07 mg/g, ip after 4 hrs post dose; assay type: functional, organism-based
[21] = Antitumor activity against human HL60 cells xenografted in Balb/c mouse assessed as tumor growth inhibition at 0.07 mg/g, ip dosed as 2 sequential daily injections followed by 7 consecutive days of without treatment; assay type: functional, HL-60
Jurkat [22] = assay: Inhibition of cell proliferation of human Jurkat cells expressing inducible FLAG-tagged PFKFB incubated for 48 hrs by trypan blue dye exclusion assay; assay type: functional, cell-based
[23] = Potency index, ratio of IC50 for 3BrPA to IC50 for test compound for growth inhibition of human NHBE cells immortalized with human telomerase and large-T antigen and transformed with mutated Ras protein at 1 uM incubated for 48 to 72 hrs by trypan blue dye exclusion assay; assay type: functional
HL-60 [24] = assay: Antitumor activity against human HL60 cells xenografted in Balb/c mouse assessed as tumor growth inhibition at 0.07 mg/g, ip dosed as 2 sequential daily injections followed by 7 consecutive days of without treatment and subsequent second dosing and measured on day9; assay type: functional, organism-based
NHBE [25] = assay: Growth inhibition of human NHBE cells immortalized with human telomerase and large-T antigen and transformed with mutated Ras protein at 1 uM incubated for 48 to 72 hrs by trypan blue dye exclusion assay; assay type: functional, cell-based
NHBE [26] = assay: Growth inhibition of human NHBE cells immortalized with human telomerase and large-T antigen and transformed with mutated Ras protein at 10 uM incubated for 48 to 72 hrs by trypan blue dye exclusion assay; assay type: functional, cell-based
Jurkat [27] = assay: Reduction in lactate secretion in human Jurkat cells expressing inducible FLAG-tagged PFKFB at 10 uM after 8 hrs by lactate oxidase based colorimetric assay; assay type: functional, cell-based
Jurkat [28] = assay: Suppression of glycolytic flux into alanine in human Jurkat cells expressing inducible FLAG-tagged PFKFB at 10 uM after 36 hrs by NMR spectroscopy; assay type: functional, cell-based
[29] = Solubility in Cremophore:EToH:saline solution in normal conditions using Amber vials after 8 hrs by HPLC method (reference value: 1 mg/ml at 0 hrs); assay type: physicochemical
[30] = Solubility in Cremophore:EToH:saline solution in normal conditions using Amber vials after 4 hrs by HPLC method (reference value: 1 mg/ml at 0 hrs); assay type: physicochemical
[31] = Solubility in Cremophore:EToH:saline solution in normal conditions using Amber vials after 2 hrs by HPLC method (reference value: 1 mg/ml at 0 hrs); assay type: physicochemical
Lewis lung carcinoma = assay: Antitumor activity against mouse LLC cells implanted in C57Bc16 mouse assessed as inhibition of tumor size at 25 mg/kg, ip dosed on days 1,2 and 3 and 35 mg/kg, ip on days Antitumor activity against mouse LLC cells implanted in C57Bc16 mouse assessed as inhibition of tumor size at 25 mg/kg, ip dosed on days 7,8,9,13,14 and 15; assay type: functional, organism-based

T1 sequence (Q16875 whole entry): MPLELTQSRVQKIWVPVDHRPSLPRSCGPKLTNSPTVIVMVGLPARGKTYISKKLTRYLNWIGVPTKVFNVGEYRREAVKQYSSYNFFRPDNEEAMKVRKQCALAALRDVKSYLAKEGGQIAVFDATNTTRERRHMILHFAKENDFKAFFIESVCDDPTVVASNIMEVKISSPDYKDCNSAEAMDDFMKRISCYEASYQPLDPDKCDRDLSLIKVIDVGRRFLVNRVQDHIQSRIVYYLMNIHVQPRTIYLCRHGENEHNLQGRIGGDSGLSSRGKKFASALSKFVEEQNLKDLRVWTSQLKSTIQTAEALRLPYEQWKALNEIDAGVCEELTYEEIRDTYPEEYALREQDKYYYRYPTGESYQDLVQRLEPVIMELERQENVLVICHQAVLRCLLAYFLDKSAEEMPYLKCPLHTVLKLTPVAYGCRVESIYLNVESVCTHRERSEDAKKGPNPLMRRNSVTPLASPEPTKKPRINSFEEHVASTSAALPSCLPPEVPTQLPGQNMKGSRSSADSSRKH

For `O=C(/C=C/c1ccc(Cl)cc1)c1cccnc1`, which “growth inhibition (GI)” value (A549) is on record?
The value was “Active”.

And the “growth inhibition (GI)” value (K562)?
Its value is “Dose-dependent effect”.

And the “growth inhibition (GI)” value (Homo sapiens)?
Its value is “Active”.

And the “growth inhibition (GI)” value (MDA-MB-231 [1])?
The value was “Active”.

What about the “growth inhibition (GI)” value (HL-60 [2]) of the same compound?
Its value is “Dose-dependent effect”.

For `Cc1cccc2ccc(/C=C/C(=O)c3ccncc3)nc12`, which inhibition (U-87MG ATCC) is on record?
Its inhibition is “Active”.

What about the inhibition (CT26) of the same compound?
Its inhibition is “Active”.

With `O=C(/C=C/c1ccccc1Cl)c1ccccn1` as the compound, how does the “growth inhibition (GI)” value (A549) read?
The value was “Active”.

And the “growth inhibition (GI)” value (K562)?
Its value is “Active”.

And the “growth inhibition (GI)” value (Homo sapiens)?
Its value is “Active”.

What about the “growth inhibition (GI)” value (MDA-MB-231 [1]) of the same compound?
Its value is “Active”.

What about the “growth inhibition (GI)” value (HL-60 [2]) of the same compound?
The value was “Active”.

Which “growth inhibition (GI)” value (A549) does the source give for `O=C(/C=C/c1ccc2ccccc2n1)c1cccnc1` here?
The value was “Active”.

What about the “growth inhibition (GI)” value (K562) of the same compound?
Its value is “Active”.

And the “growth inhibition (GI)” value (Homo sapiens)?
The value was “Active”.

What about the “growth inhibition (GI)” value (MDA-MB-231 [1]) of the same compound?
Its value is “Active”.

What about the inhibition [3] of the same compound?
Its inhibition is > 80%.

What about the “growth inhibition (GI)” value (HL-60 [2]) of the same compound?
Its value is “Active”.

Which “growth inhibition (GI)” value (A549) does the source give for `CC(=O)Nc1ccc(/C=C/C(=O)c2ccncc2)cc1` here?
Its value is “Active”.

What about the “growth inhibition (GI)” value (K562) of the same compound?
The value was “Active”.

And the “growth inhibition (GI)” value (Homo sapiens)?
Its value is “Active”.

And the “growth inhibition (GI)” value (MDA-MB-231 [1])?
The value was “Active”.

What about the “growth inhibition (GI)” value (HL-60 [2]) of the same compound?
The value was “Active”.

For `O=C(/C=C/c1cnc2ccccc2c1)c1ccncc1`, which IC50 (Jurkat [4]) is on record?
The IC50 was > 4 µM.

With `O=C(/C=C/c1ccccc1Cl)c1cccnc1` as the compound, how does the “growth inhibition (GI)” value (A549) read?
The value was “Active”.

And the “growth inhibition (GI)” value (K562)?
Its value is “Active”.

What about the “growth inhibition (GI)” value (Homo sapiens) of the same compound?
The value was “Active”.

What about the “growth inhibition (GI)” value (MDA-MB-231 [1]) of the same compound?
The value was “Active”.

And the “growth inhibition (GI)” value (HL-60 [2])?
Its value is “Active”.

With `O=C(/C=C/c1cccnc1)c1ccncc1` as the compound, how does the Activity (Jurkat [5]) read?
Its Activity is “Active”.

What about the Activity (Jurkat [6]) of the same compound?
Its Activity is “Active”.

And the Ki [7]?
The Ki was 25.1 µM.

And the Activity (Mus musculus [8])?
Its Activity is “Active”.

And the Activity (Jurkat [9])?
Its Activity is “Active”.

And the inhibition (Jurkat [10])?
Its inhibition is “Active”.

What about the Activity [11] of the same compound?
The Activity was “Non-toxic”.

And the “Ratio IC50” value (Jurkat [12])?
The value was 2.

What about the Activity (Jurkat [13]) of the same compound?
The Activity was “Active”.

What about the “Ratio IC50” value [14] of the same compound?
The value was 10.

And the Activity (Jurkat [15])?
The Activity was “Active”.

And the Imax (MDA-MB-231 [16])?
The Imax was 64%.

What about the Activity (Jurkat [17]) of the same compound?
The Activity was “Active”.

What about the Activity (Mus musculus [18]) of the same compound?
The Activity was “Active”.

And the Activity (Jurkat [19])?
Its Activity is “Active”.

And the Activity (Mus musculus [20])?
The Activity was “Active”.

What about the TGI [21] of the same compound?
Its TGI is >75%.

And the inhibition (Jurkat [22])?
Its inhibition is “Dose-dependent effect”.

What about the “Ratio IC50” value [23] of the same compound?
The value was 10.

What about the TGI (HL-60 [24]) of the same compound?
Its TGI is “Active”.

And the “growth inhibition (GI)” value (NHBE [25])?
The value was “Active”.

And the “growth inhibition (GI)” value (NHBE [26])?
Its value is “Active”.

What about the Activity (Jurkat [27]) of the same compound?
Its Activity is “Active”.

And the Activity (Jurkat [28])?
Its Activity is “inactive”.

With `Cl.O=C(/C=C/c1ccc2cccc(O)c2n1)c1ccncc1` as the compound, how does the solubility at 8 h [29] read?
The solubility at 8 h was 1000 µg/mL.

What about the solubility at 4 h [30] of the same compound?
Its solubility at 4 h is 1000 µg/mL.

And the solubility at 2 h [31]?
The solubility at 2 h was 1000 µg/mL.

What about the inhibition (Lewis lung carcinoma) of the same compound?
Its inhibition is “Active”.

For `O=C(/C=C/c1cccc2ccccc12)c1ccncc1`, which “growth inhibition (GI)” value (A549) is on record?
Its value is “Active”.

What about the “growth inhibition (GI)” value (K562) of the same compound?
Its value is “Active”.

And the “growth inhibition (GI)” value (Homo sapiens)?
The value was “Active”.

What about the “growth inhibition (GI)” value (MDA-MB-231 [1]) of the same compound?
The value was “Active”.

And the “growth inhibition (GI)” value (HL-60 [2])?
The value was “Active”.
